# Source: patent publication US20170281727A1, “THERAPEUTIC OR PROPHYLACTIC AGENT FOR ITCHING SKIN DISEASES” (Toray Industries, Inc., priority 2014, published 2017)
# Entries after “also recorded” stand apart in the source; their conditions may differ.
# What was measured:
# Format in all cases: cell-based, human
# KAL1 = assay: mRNA expression analysis of KAL1 by real-time PCR in NHEKs; details: LL-37 20 μg/ml, 48 hours after stimulation, vs control without LL-37
# Procedure: (§1) Normal human epidermal keratinocytes (NHEKs) were cultured according to a protocol provided by Lonza. NHEKs were cultured in a 12-well tissue culture plate and, in the growth phase (80% confluence), LL-37 (20 μg/ml) was added alone, or LL-37 (20 μg/ml) and the peptide SLIGRL (SEQ ID NO:2, 100 μM) were added, to the cells. The peptide SLIGRL is a peptide frequently used as a PAR2 agonist, and it is known that activation of PAR2 induces promotion of expression of TSLP in keratinocytes (Wilson et al, Cell, 2013: 155, 285-295). Total RNA was extracted 48 hours after the addition of LL-37, and mRNA expression analysis was carried out by real-time PCR. The culture supernatant was collected, and subjected to analysis of the protein expression level by ELISA. • (3) Analysis of Expression of mRNA of Each Gene
# (§2) The transcription level of each gene was analyzed by quantitative real-time PCR. […] According to the manufacturer's instructions, quantitative real-time PCR was carried out using an Applied Biosystems 7900HT Fast Real-time PCR system (Applied Biosystems) with SYBR Premix Ex Taq (Takara). […] The amount of each mRNA was normalized against the amount of mRNA of RPS18, and finally expressed as the ratio to the mRNA in an untreated control.
# Artemin = assay: mRNA expression analysis of Artemin by real-time PCR in NHEKs; details: LL-37 20 μg/ml, 48 hours after stimulation, vs control without LL-37
# Procedure: as §1, §2
# TSLP = assay: mRNA expression analysis of TSLP by real-time PCR in NHEKs
# Procedure: as §1, §2
# hBD-1 = assay: mRNA expression analysis of hBD-1 by real-time PCR in NHEKs; details: LL-37 20 μg/ml, 48 hours after stimulation, vs control without LL-37
# Procedure: as §1, §2
# Sema3A [1] = assay: mRNA expression analysis of Sema3A by real-time PCR in NHEKs; details: LL-37 20 μg/ml, 48 hours after stimulation, vs control without LL-37
# Procedure: as §1, §2
# hBD-2 = assay: mRNA expression analysis of hBD-2 by real-time PCR in NHEKs; details: LL-37 20 μg/ml, 48 hours after stimulation, vs control without LL-37
# Procedure: as §1, §2
# NGF = assay: mRNA expression analysis of NGF by real-time PCR in NHEKs; details: LL-37 20 μg/ml, 48 hours after stimulation, vs control without LL-37
# Procedure: as §1, §2
# Sema3A [2] = assay: Sema3A protein in NHEK culture supernatant by ELISA; details: NHEKs, LL-37 20 μg/ml, 48 hours after stimulation, vs control without LL-37
# Procedure: as §1
# The expression level of each protein was analyzed by ELISA. The amount of Sema3A in the culture supernatant was measured using an Enzyme-linked Immunosorbent Assay Kit (USCN Life Science) according to the manufacturer's instructions.
substance,measurement,setting,value
"LL-37: human cathelicidin antimicrobial peptide, LLGDFFRKSKEKIGKEFKRIVQRIKDFLRNLVPRTES, SEQ ID NO:1 (listed as Homo sapiens)",mRNA expression of KAL1,KAL1,promoted; also recorded: increases
same,mRNA expression of Artemin,Artemin,suppressed; also recorded: decreases
same,mRNA expression of TSLP,"TSLP; LL-37 20 μg/ml alone, 48 hours after stimulation, vs control without LL-37",Suppression; also recorded: decreases
same,mRNA expression of TSLP induced by SLIGRL,"TSLP; LL-37 20 μg/ml plus SLIGRL 100 μM (PAR2 agonist), 48 hours",suppression; also recorded: decreased
same,mRNA expression of hBD-1,hBD-1,Promotion; also recorded: increases
same,mRNA expression of Sema3A,Sema3A [1],promoted; also recorded: increases
same,mRNA expression of hBD-2,hBD-2,Promotion; also recorded: increases
same,mRNA expression of NGF,NGF,suppressed; also recorded: decreases
same,amount of Sema3A protein in the culture supernatant,Sema3A [2],increase
